Measurements reported in patent US20210317454A1, “USE OF A TLR9 AGONIST IN METHODS FOR TREATING COVID-19” (priority 2020, published 2021).
“Also recorded” adds a separate entry of the source. Like-named read-outs stand apart in the source and are kept apart here.

Experiments:
[1] = system: mediastinal lymph node immune cells; format: in vivo, BL6 mice; conditions: both pre and post-infection administration; B cells, CD4+, CD8+, granulocytes, macrophages, dendritic cells
Calu3 cells = conditions: dilutions above this excluded from analyses of conditions 1 and 2
HCV = conditions: cited from earlier work
SARS-CoV2 [2] = format: cell-based
tumor microenvironment = conditions: cited from earlier work
[3] = system: B16. F10 melanoma pulmonary metastasis; conditions: intranasal versus subcutaneous; cited from earlier work
[4] = system: B16. F10 melanoma mouse models of colon carcinoma pulmonary metastasis; conditions: intranasal administration at very low doses compared with subcutaneous; cited from earlier work
SARS-CoV2 [5] = conditions: for toxicity in mice: intranasal 2.5 mg/kg, 8 BL6 mice

Substance: tilsotolimod: phosphorothioate oligonucleotide agonist of TLR9, sequence 5LTCG1AACG1TTCG1-X-G1CTTG1CAAG1CT-5′, X glycerol linker, G1 2′-deoxy-7-deazaguanosine (SEQ ID NO. 1) (DNA TCGAACGTTCGGCTTGCAAGCT; phosphorothioate, 7-deazaG, glycerol-linked 3'-3' dimer; (3)..(3) 2′-deoxy-7-deazaguanosine; (7)..(7) 2′-deoxy-7-deazaguanosine; (11)..(12) Linked by is a glycerol linker; (11)..(11) 2′-deoxy-7-deazaguanosine; (12)..(12) 2′-deoxy-7-deazaguanosine; (16)..(16) 2′-deoxy-7-deazaguanosine; (20)..(20) 2′-deoxy-7-deazaguanosine)
- number of immune cells in the mediastinal lymph nodes [1]: robust infiltration of immune cells; also recorded: robust changes in the number of immune cells
- concentration above which tilsotolimod induced toxicity (Calu3 cells): above 3 μM
- viral load reductions (HCV; 0.16 mg/kg twice weekly plus ribavirin compared with pegIFN-α2a plus ribavirin): greater
- rapid viral response (HCV; HCV-infected patients, all dose groups): none of the patients achieved rapid viral response
- tolerability (HCV; subcutaneous 0.08, 0.16, 0.32 mg/kg once weekly and 0.16 mg/kg twice weekly, 4 weeks, with ribavirin): well tolerated with no discontinuations due to treatment-emergent adverse events
- cytokine storm (HCV; tilsotolimod trials involving HCV): cytokine storm was not observed
- antiviral activity compared with controls (SARS-CoV2 [2]; treatment condition 1: 24 h pre-treatment, then infection for 48 hours): None of the serial dilutions for treatment condition 1 (tilsotolimod 24 h pre-treatment) resulted in significant antiviral activity
- reduction in TCID50 (SARS-CoV2 [2]; treatment condition 2: co-treatment with SARS-CoV2 for 48 hours, most effective dilution 0.41 μM): ~1 log
- reduction in TCID50 (SARS-CoV2 [2]; treatment condition 3: supernatant of 24 h pretreated Calu3 cells added to fresh cells then infected, 1:10 serial dilution (33 μM)): ~3 log
- Type I IFN pathway and dendritic cell maturation (tumor microenvironment; IFNα gene signature, MHC class I expression, patient biopsies): Activation of the Type I IFN pathway (induction of an IFNα gene signature) followed by maturation of dendritic cells
- time to immune effects in the tumor microenvironment (tumor microenvironment; biopsies after receiving tilsotolimod): ≤ 24 h
- CD8+ cytotoxic T lymphocytes and tumor response (tumor microenvironment; injected and non-injected tumors): systemic increases in CD8+ cytotoxic T lymphocytes (CTLs) with subsequent reduction of both injected and non-injected tumors
- antitumor potency of intranasal relative to subcutaneous treatment [3]: approximately 25 times
- tumor-specific CTLs in tracheobronchial lymph nodes [4]: significant increase
- infectious SARS-CoV2 titer (TCID50/Lung) (SARS-CoV2 [5]; intranasal 2.5 mg/kg one day after virus exposure, lungs three days post-infection): reduced infection, although not statistically significant
- toxicity in mice (SARS-CoV2 [5]; post-treatment group): No toxicity was observed
- toxicity in mice (SARS-CoV2 [5]; pre-treatment group): one mouse died, and two showed signs of reduced mobility
